Literature values, collected in patent US6717012B2, “Antioxidant nitroxides and nitrones as therapeutic agents” (priority 2001, dated 2004).

Assays:
[1] = system: rats with an experimental painful peripheral neuropathy
[2] = biological target: T1, 5-hydroxytryptamine 5-HT3 receptors (Homo sapiens, UniProt P46098)
T1 sequence (P46098 24-478): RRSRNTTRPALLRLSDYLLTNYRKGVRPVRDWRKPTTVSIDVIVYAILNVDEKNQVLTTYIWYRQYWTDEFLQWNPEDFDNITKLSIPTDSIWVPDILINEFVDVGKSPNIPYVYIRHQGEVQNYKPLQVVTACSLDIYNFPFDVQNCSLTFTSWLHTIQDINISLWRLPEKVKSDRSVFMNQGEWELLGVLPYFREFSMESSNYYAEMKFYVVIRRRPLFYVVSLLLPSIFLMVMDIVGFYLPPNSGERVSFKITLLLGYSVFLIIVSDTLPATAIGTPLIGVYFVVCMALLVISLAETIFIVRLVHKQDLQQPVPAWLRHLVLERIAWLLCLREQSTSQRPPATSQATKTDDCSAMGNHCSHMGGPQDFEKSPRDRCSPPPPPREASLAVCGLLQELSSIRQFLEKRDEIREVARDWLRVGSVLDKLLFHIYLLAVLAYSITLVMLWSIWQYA

[3] = biological target: NMDA channel ([3H]dizocilpine binding to brain membranes) (Homo sapiens, UniProt Q05586)
[4] = system: quinolic acid-induced hippocampal damage; details: rats
[5] = biological target: PCP and MK-801 binding sites of the NMDA receptor (Homo sapiens, UniProt Q05586); details: postmortem human frontal cortex, at therapeutic concentrations
[6] = system: cortical and retinal neuron cultures
[7] = system: nicotinic acetylcholine receptors
NMDA receptor = NMDA receptor (Homo sapiens, UniProt Q05586)

| Structure (SMILES) | effect on heat hyperalgesia [1] | block of 5-HT3 receptors [2] | inhibition of [3H]dizocilpine binding [3] | prevention of quinolic acid-induced hippocampal damage [4] | binding to PCP and MK-801 binding sites [5] | protection from toxicity of glutamate, NMDA and HIV-1 coat protein gp120 [6] | block of nicotinic acetylcholine receptors [7] | antagonist potency at the NMDA receptor (NMDA receptor) |
| --- | --- | --- | --- | --- | --- | --- | --- | --- |
| CC1(C)CC(O)CC(C)(C)N1[O] [4-hydroxy-2,2,6,6-tetramethylpiperidine-1-oxyl] | alleviated heat hyperalgesia |  |  |  |  |  |  |  |
| CC12CC3CC(C)(C1)CC(N)(C3)C2 [Memantine, 1-amino-3,5-dimethyladamantane] |  | blocks | inhibits | prevents | binds | protects | blocks | micromolar antagonist |
